Literature values in US20250332118A1, “NOVEL ORAL CARE FORMULATIONS FOR TREATMENT OF XEROSTOMIA” (priority 2022, published 2025).

Conditions: @ 79° F.

CS(C)(=O)=O [MSM, Methylsulfonylmethane]
Water solubility: 34 % w/v
